From US20220280468A1, “METHOD FOR PREVENTING OCCURRENCE OF CARDIOVASCULAR EVENT IN MULTIPLE RISK PATIENT” (MOCHIDA PHARMACEUTICAL CO., LTD., priority 2006, published 2022)

Legend:
[1] = tested on: cardiovascular events in hypercholesterolemia patients; assay: JELIS partial analysis: occurrence of cardiovascular events in primary prevention hypercholesterolemia patients by risk factors; assay type: in vivo, human; conditions: for Incidence in the EPA-E group (cases of occurrence/all cases) / Incidence in the EPA-E group (%): with HMG-CoA RI base drug; for Rate of suppression of cardiovascular event occurrence after correcting the dispersion between groups: end of trial
Description: This trial corresponds to a partial analysis of the results obtained in JELIS (Japan EPA Lipid Intervention Study) which is a large scale clinical trial of high purity EPA preparation which was presented in The […] 2005 Annual Meeting (for general information on JELIS, see Medical Tribune, issue of Nov. 17, 2005, Feature article 3, pp. 75-76).
More specifically, for the EPA-E group (7503 cases) and the control group (7478 cases) evaluated for the primary prevention effect in the 18,645 subject patients of the JELIS trial (EPA-E group (9,326 cases) and control group (9,319 cases)), occurrence of the cardiovascular events was observed and analysed for 5 years from the start of the administration in relation to the number of risk factors at the registration as defined by the following (1) to (4): • (1) obesity: body mass index (BMI) of at least 25; • (2) hypertension or prehypertension: systolic blood pressure (SBP) of at least 140 mmHg or diastolic blood pressure (DBP) of at least 90 mmHg; • (3) diabetes, prediabetes, or abnormal glucose tolerance: fasting blood glucose (FBS) of at least 126 mg/dL or hemoglobin Alc (HbAlc) of at least 6.5%; • (4) hypertriglyceridemia or low HDL cholesterolemia: a triglyceride (TG) of at least 150 mg/dL or a HDL-C of less than 40 mg/dL.
The EPA-E group was orally administered with Epadel (Mochida Pharmaceutical Co., Ltd.) typically at an adult dose of 600 mg per administration and 3 times a day after the meal. However, in the case of abnormal serum TG, the dose could be increased to 900 mg per administration and 3 times a day. In both groups, pravastatin sodium (Mevalotin™ tablets and fine granules, Daiichi Sankyo Co., Ltd.), simvastatin (Lipovas™ tablets, Banyu Pharmaceutical Co., Ltd.), or atorvastatin calcium hydrate (Lipitor™ tablets, Astellas Pharma Inc. and Pfizer Inc.) was used for the base drug, and these drugs were orally administered according to the prescribed dosage regimen. More specifically, pravastatin sodium was orally administered at a daily dose of 10 to 20 mg in a single dose or two divided doses; simvastatin was orally administered at a daily dose of 5 to 20 mg in a single dose; atorvastatin calcium hydrate was orally administered at a daily dose of 10 to 40 mg in a single dose.
The number of occurrence of cardiovascular events in the observation period of 5 years, incidence (%), and rate of suppression of the incidence of the cardiovascular events in the EPA-E group with respect to the control group are shown in Table 1 for each number of risk factors. The rate of suppression of the incidence of the cardiovascular events was calculated by the formula: [{(incidence in the control group)−(incidence in the EPA-E group)}/incidence in the control group]×100.
From the results of the trial as described above, the number of occurrence of cardiovascular events in the observation period of 5 years, incidence (%), and rate of suppression of the incidence of the cardiovascular events in the EPA-E group with respect to the control group were calculated for the male patients having at least two risk factors. (The calculation was conducted by the same procedure as described above.)
(The calculation was conducted by the same procedure as described above.)

[2] = tested on: cardiac events and serum lipids in hyperlipidemia patients; conditions: cited from earlier work
[3] = 1-2 risk factors, 5 years observation
[4] = 1-3 risk factors, 5 years observation
[5] = 1-4 risk factors, 5 years observation
[6] = 1 risk factor, 5 years observation
[7] = 2-3 risk factors, 5 years observation
[8] = 2-4 risk factors, 5 years observation
[9] = 2 risk factors, 5 years observation
[10] = 3-4 risk factors, 5 years observation
[11] = 3 risk factors, 5 years observation
[12] = TG of at least 150 mg/dL and HDL-C of less than 40 mg/dL
[13] = male patients with two or more risk factors
[14] = male patients, 2-4 risk factors, 5 years observation
[15] = patients with TG of at least 150 mg/dL and HDL-C of less than 40 mg/dL, 5 years
[16] = EPA-E group (with HMG-CoA RI), Non-Patent Document 3

SMILES: CC/C=C\C/C=C\C/C=C\C/C=C\C/C=C\CCCC(=O)OCC [EPA-E, ethyl icosapentate]
- Rate of Suppression of cardiovascular event incidence vs control group ([1]; 0 risk factors, 5 years): 22%
- Incidence in the EPA-E group (cases of occurrence/all cases) ([1]; 0 risk factors, 5 years observation): 11/1326
- Rate of Suppression of cardiovascular event incidence vs control group ([1]; 1-2 risk factors, 5 years): 21%
- Incidence in the EPA-E group (%) [1, 3]: (1.3) %
- Incidence in the EPA-E group (cases of occurrence/all cases) [1, 3]: 59/4706
- Rate of Suppression of cardiovascular event incidence vs control group ([1]; 1-3 risk factors, 5 years): 18%
- Incidence in the EPA-E group (%) [1, 4]: (1.5) %
- Incidence in the EPA-E group (cases of occurrence/all cases) [1, 4]: 87/5935
- Rate of Suppression of cardiovascular event incidence vs control group ([1]; 1-4 risk factors, 5 years): 18%
- Incidence in the EPA-E group (%) [1, 5]: (1.5) %
- Incidence in the EPA-E group (cases of occurrence/all cases) [1, 5]: 93/6177
- Rate of Suppression of cardiovascular event incidence vs control group ([1]; 1 risk factor, 5 years): 15%
- Incidence in the EPA-E group (%) [1, 6]: (1.0) %
- Incidence in the EPA-E group (cases of occurrence/all cases) [1, 6]: 25/2468
- Rate of Suppression of cardiovascular event incidence vs control group ([1]; 2-3 risk factors, 5 years): 16%
- Incidence in the EPA-E group (%) [1, 7]: (1.8) %
- Incidence in the EPA-E group (cases of occurrence/all cases) [1, 7]: 62/3467
- Rate of Suppression of cardiovascular event incidence vs control group ([1]; 2-4 risk factors, 5 years): 18%
- Incidence in the EPA-E group (%) [1, 8]: (1.8) %
- Incidence in the EPA-E group (cases of occurrence/all cases) [1, 8]: 68/3709
- Rate of Suppression of cardiovascular event incidence vs control group ([1]; 2 risk factors, 5 years): 23%
- Incidence in the EPA-E group (%) [1, 9]: (1.5) %
- Incidence in the EPA-E group (cases of occurrence/all cases) [1, 9]: 34/2238
- Rate of Suppression of cardiovascular event incidence vs control group ([1]; 3-4 risk factors, 5 years): 14%
- Incidence in the EPA-E group (%) [1, 10]: (2.3) %
- Incidence in the EPA-E group (cases of occurrence/all cases) [1, 10]: 34/1471
- Rate of Suppression of cardiovascular event incidence vs control group ([1]; 3 risk factors, 5 years): 5%
- Incidence in the EPA-E group (%) [1, 11]: (2.3) %
- Incidence in the EPA-E group (cases of occurrence/all cases) [1, 11]: 28/1229
- Rate of Suppression of cardiovascular event incidence vs control group ([1]; 4 risk factors, 5 years): 40%
- Incidence in the EPA-E group (cases of occurrence/all cases) ([1]; 4 risk factors, 5 years observation): 6/242
- Effect on occurrence of cardiovascular events (in words) [1, 12]: significantly suppressed occurrence of cardiovascular events
- Occurrence of fatal events in the EPA-E group [1, 12]: occurrence of fatal events was not found
- Time from start of administration after which decrease in cardiovascular event incidence was significant [1, 12]: ≥ 2 years
- Rate of suppression of cardiovascular event occurrence after correcting the dispersion between groups ([1]; TG of at least 150 mg/dL and HDL-C of less than 40 mg/dL, FIG. 2): 53%
- Effect on occurrence of cardiovascular events (in words) [1, 13]: significantly suppressed the occurrence of cardiovascular events
- Time from start of administration after which decrease in cardiovascular event incidence was significant [1, 13]: ≥ 2 years
- Rate of suppression of cardiovascular event occurrence after correcting the dispersion between groups ([1]; male patients with two or more risk factors, FIG. 1): 55%
- Incidence in the EPA-E group (%) [1, 14]: (1.8) %
- Incidence in the EPA-E group (cases of occurrence/all cases) [1, 14]: 19/1065
- Rate of Suppression of cardiovascular event incidence vs control group ([1]; male patients, 2-4 risk factors, 5 years, uncorrected): 56%
- Suppression of occurrence of cardiovascular events vs control group ([1]; patients with HDL-C of less than 40 mg/dL, uncorrected): 35%
- Rate of Suppression of cardiovascular event incidence vs control group ([1]; patients with TG of at least 150 mg/dL and HDL-C of less than 40 mg/dL, 5 years, uncorrected): 48%
- Incidence in the EPA-E group (%) [1, 15]: (2.3) %
- Incidence in the EPA-E group (cases of occurrence/all cases) [1, 15]: 11/482
- Suppression of occurrence of cardiovascular events vs control group ([1]; patients with triglyceride of at least 150 mg/dL, uncorrected): 15%
- Change of HDL-cholesterol value ([2]; EPA-E group (with HMG-CoA RI), Non-Patent Document 2): slight
- Change in HDL-C [2, 16]: little change
- Decrease of LDL-cholesterol [2, 16]: 25%
- Decrease of total cholesterol [2, 16]: 19%
- Reduction of LDL-cholesterol value ([2]; EPA-E group (with HMG-CoA RI), after 5 years, Non-Patent Document 2): 26%
- Decrease of triglyceride ([2]; EPA-E group (with HMG-CoA RI), significant, Non-Patent Document 3): 9%
- Incidence of events vs control group (in words) ([2]; analysis limited to the primary prevention patients): this difference was not statistically significant
- Suppression of cardiac events (in words) ([2]; total of primary and secondary prevention patients, and secondary prevention patients): statistically significant suppression
